From the NIST ThermoML archive (doi:10.1021/je501065g)

Details: Liquid, Pulse-echo method

c1ccccc1 [benzene]
Details	speed of sound [m/s]
283.2 K, 102.1 kPa	1372
283.2 K, 5280.1 kPa	1396
283.2 K, 10234 kPa	1418.2
283.2 K, 15332 kPa	1439.9
283.2 K, 20204 kPa	1460.2
283.2 K, 24857 kPa	1479
283.21 K, 29815 kPa	1498.1
298.2 K, 84.2 kPa	1299.7
298.2 K, 5421.7 kPa	1327
298.2 K, 10069 kPa	1349.5
298.2 K, 14866 kPa	1371
298.2 K, 20104 kPa	1394.3
298.2 K, 25018 kPa	1415.8
298.2 K, 30106 kPa	1436.9
313.2 K, 61.2 kPa	1230.4
313.2 K, 5536.5 kPa	1259.8
313.2 K, 10140 kPa	1283.5
313.2 K, 15332 kPa	1309
313.2 K, 20194 kPa	1332.2
313.2 K, 25204 kPa	1354.8
313.2 K, 29980 kPa	1375.7
333.21 K, 153.7 kPa	1139.7
333.21 K, 5378.8 kPa	1171.4
333.21 K, 10149 kPa	1198.3
333.21 K, 15038 kPa	1225
333.21 K, 19601 kPa	1248.5
333.21 K, 24756 kPa	1274
333.21 K, 30146 kPa	1299.2
353.2 K, 15092 kPa	1146.6
353.2 K, 19918 kPa	1173.2
353.21 K, 172.3 kPa	1052.2
353.21 K, 5094.9 kPa	1084.9
353.21 K, 10007 kPa	1116.2
353.21 K, 24680 kPa	1198.7
353.21 K, 30063 kPa	1226

CCO [ethanol]
Details	speed of sound [m/s]
253.22 K, 104.2 kPa	1304.8
253.22 K, 130.2 kPa	1305.1
253.22 K, 5018.8 kPa	1330.4
253.22 K, 5283.4 kPa	1331.5
253.22 K, 10112 kPa	1355.4
253.22 K, 10246 kPa	1355.8
253.22 K, 15106 kPa	1379.1
253.22 K, 15229 kPa	1379.4
253.22 K, 19991 kPa	1401.4
253.22 K, 20403 kPa	1402.9
253.22 K, 24921 kPa	1422.9
253.22 K, 25022 kPa	1423.6
253.22 K, 30114 kPa	1444.8
253.23 K, 30052 kPa	1444.5
273.2 K, 99.9 kPa	1230.8
273.2 K, 5193.3 kPa	1259.3
273.2 K, 10100 kPa	1285.4
273.2 K, 15284 kPa	1311.7
273.2 K, 20253 kPa	1336
273.2 K, 25058 kPa	1358.8
273.2 K, 25221 kPa	1359.3
273.2 K, 30203 kPa	1381.6
273.21 K, 128.6 kPa	1231.1
273.21 K, 5026.6 kPa	1258.5
273.21 K, 10148 kPa	1285.8
273.21 K, 15029 kPa	1310.8
273.21 K, 20070 kPa	1335.2
273.21 K, 30338 kPa	1382.2
293.2 K, 103.7 kPa	1160
293.2 K, 5339.4 kPa	1192
293.2 K, 10368 kPa	1220.8
293.2 K, 15197 kPa	1247.2
293.2 K, 20222 kPa	1273.4
293.2 K, 25256 kPa	1298.5
293.2 K, 30069 kPa	1321.4
293.21 K, 140 kPa	1160.4
293.21 K, 5169 kPa	1191
293.21 K, 9977.3 kPa	1218.7
293.21 K, 15052 kPa	1246.6
293.21 K, 20101 kPa	1272.9
293.21 K, 25034 kPa	1297.5
293.21 K, 30268 kPa	1322.5
313.21 K, 103.8 kPa	1091.9
313.21 K, 121.8 kPa	1092.3
313.21 K, 5023.3 kPa	1124.7
313.21 K, 5318.6 kPa	1126.5
313.21 K, 10011 kPa	1155.8
313.21 K, 10351 kPa	1157.8
313.21 K, 14993 kPa	1185.1
313.21 K, 15238 kPa	1186.6
313.21 K, 20052 kPa	1213.5
313.21 K, 20317 kPa	1214.8
313.21 K, 25163 kPa	1240.5
313.21 K, 25383 kPa	1241.6
313.21 K, 30116 kPa	1265.6
313.21 K, 30384 kPa	1266.8
333.21 K, 104.1 kPa	1024.9
333.21 K, 137.3 kPa	1025.2
333.21 K, 5087.6 kPa	1061.2
333.21 K, 5212.7 kPa	1062.1
333.21 K, 10090 kPa	1095
333.21 K, 10228 kPa	1095.9
333.21 K, 15025 kPa	1126.4
333.21 K, 15294 kPa	1127.9
333.21 K, 19954 kPa	1155.9
333.21 K, 20181 kPa	1157.1
333.21 K, 24959 kPa	1184.2
333.21 K, 25377 kPa	1186.4
333.21 K, 30028 kPa	1211.3
333.21 K, 30214 kPa	1212.3
353.2 K, 103.5 kPa	957.73
353.21 K, 132.1 kPa	957.59
353.21 K, 5006 kPa	996.76
353.21 K, 5137.5 kPa	997.75
353.21 K, 10089 kPa	1034.4
353.21 K, 10319 kPa	1035.9
353.21 K, 15035 kPa	1068.3
353.21 K, 15211 kPa	1069.4
353.21 K, 20108 kPa	1100.9
353.21 K, 20273 kPa	1101.7
353.21 K, 25007 kPa	1130.5
353.21 K, 25250 kPa	1131.8
353.21 K, 30102 kPa	1159.5
353.21 K, 30289 kPa	1160.5
